Here are results for seven molecules from ChEMBL document CHEMBL1153978, “8-[2-(4-Aryl-1-piperazinyl)ethyl]-2H-1,4-benzoxazin-3(4H)-ones: dual-acting 5-HT1 receptor antagonists and serotonin reuptake inhibitors--part II” (Bioorg Med Chem Lett, 2009).

The test system of data set [1] is Liver microsomes. The data set is described as follows: Intrinsic clearance in human liver microsomes. The class given is ADME, Microsome.
A short description of data set [2]: Oral bioavailability in rat 1 mg/kg. The class given is ADME, organism-based. As to conditions: in vivo.
Data set [3] in a line: Clearance in rat blood at 0.5 mg/kg, iv and 1 mg/kg, po. Conditions: whole blood. The class given is ADME, organism-based.
The nature of data set [4]: Half life in rat at 0.5 mg/kg, iv and 1 mg/kg, po. The class given is ADME, organism-based. Conditions: in vivo.
Data set [5] in a line: Volume of distribution at steady state in rat at 0.5 mg/kg, iv and 1 mg/kg, po. The class given is ADME, organism-based. As to conditions: in vivo, read-out: Vdss.
Data set [6] in a line: Ratio of drug level in rat brain to plasma at 0.5 mg/kg, iv and 1 mg/kg, po. The class given is ADME, organism-based.

On to `Cc1ccc2c(N3CCN(CCc4cccc5c4OCC(=O)N5C)CC3)cccc2n1`, for which, in data set [1], the CL amounted to 2.4 mL/min/g. In data set [2], this molecule registered a bioavailability of 26%. The molecule further showed a clearance in data set [3] of 29 mL/min/kg. The molecule also had a half-life in data set [4] of 60 min. Besides, in data set [5], the Vd was 1.7 L/kg.
The molecule `Cc1ccc2c(N3CCN(CCc4cccc5c4OCC(=O)N5C)CC3)cc(F)cc2n1` showed a CL in data set [1] of 3.2 mL/min/g. The Kp in data set [6] came to 1.1. In data set [2], this molecule showed a bioavailability of 41%. For the same molecule, the clearance in data set [3] was found to be 21 mL/min/kg. The half-life in data set [4] is 84 min. Besides, the Vd in data set [5] is 2.1 L/kg.
In data set [1], `Cc1ccc2c(N3CCN(CCCc4cccc5c4OCC(=O)N5C)CC3)cccc2n1` showed a CL of 2.1 mL/min/g. For the same molecule, in data set [6], the concentration ratio (Kp) came to 2.9. Further, the clearance in data set [3] was found to be 55 mL/min/kg. Besides, the half-life in data set [4] is 90 min. Moreover, the Vd in data set [5] was found to be 5.2 L/kg.
As for `Cc1ccc2c(N3CCN(CCc4cccc5c4OCC(=O)N5C)[C@@H](C)C3)cccc2n1`, the CL in data set [1] turned out to be 3.5 mL/min/g. The Kp in data set [6] was 1.9. In data set [2], the bioavailability was 31%. For the same molecule, in data set [3], the clearance was determined as 44 mL/min/kg. Moreover, the half-life in data set [4] was 48 min. Besides, in data set [5], the Vd was found to be 1.9 L/kg.
On to `Cc1ccc2c(N3CCN(CCc4ccc5c(c4)NC(=O)CO5)CC3)cccc2n1`, for which the CL in data set [1] was < 0.5 mL/min/g. The Vd in data set [5] was determined as 2 L/kg.
With `Cc1ccc2c(N3CCN(CCc4cccc5c4OCC(=O)N5)CC3)cccc2n1`, in data set [1], the CL turned out to be 1 mL/min/g. This molecule also returned a bioavailability in data set [2] of 63%. For the same molecule, in data set [3], the clearance was 8 mL/min/kg. In data set [4], the half-life is 312 min. Also, in data set [5], the Vd was 3.4 L/kg.
In turn, `Cc1ccc2c(N3CCN(CCc4ccc5c(c4)N(C)C(=O)CO5)CC3)cccc2n1` displayed a CL in data set [1] of 1.1 mL/min/g. In addition, the Vd in data set [5] came out at 2.7 L/kg.

In general, bioavailability refers to the share of a dose that reaches the circulation, judged against a reference dose that is usually intravenous. A lower bioavailability goes with poor availability. Usually half-life stands for the time needed for the level to fall by half in the phase considered. Read a low half-life as rapid decline. The term Kp denotes the ratio of the level in a tissue or fluid to that in plasma or blood.
